These results are taken from US10869846B2, “N-acetylcysteine amide (NAC amide) in the treatment of diseases and conditions associated with oxidative stress” (SENTIENT LIFESCIENCES, INC., priority 2005, dated 2020).

The conditions of assay [1]: Wong et al. 1986; cited from earlier work.
Assay [2] has as its system red blood cells (RBCs). As to conditions: Grinberg et al. 2005; cited from earlier work.
The test system of assay [3] is PC12 cells. The assay can be described thus: Morphological assessment of glutamate toxicity. The format is cell-based. As to conditions: 10 mM glutamate, 750 μM NAC amide, 24 hours. The procedure:
Cell culture and toxicity studies: Stock culture of PC12 cells, purchased from ATCC, were grown in 75 cm^2 tissue culture flasks in RPMI 1640, supplemented with 10% (v/v) heat-inactivated horse serum, and 5% (v/v) fetal bovine serum, to which 1% (v/v) penicillin and streptomycin were added. Cultures were maintained at 37° C. in a humidified atmosphere containing 5% CO2. The cells were passaged twice a week. Unless specified, all of the experiments were performed using Dulbecco's modified Eagle's medium (DMEM) as differentiation medium, supplemented with 0.5% (v/v) fetal bovine serum, 1% (v/v) penicillin and streptomycin. PC12 cells were plated at a density of 25×10^3 cells/well in a 24-well, collagen-coated plate for morphological assessment. The plate was divided into five groups in triplicate: 1) control: no glutamate, no NAC amide; 2) Nerve Growth Factor (NGF) control: NGF (100 ng/ml), no glutamate, no NAC amide; 3) NAC amide only: NGF (100 ng/ml), no glutamate, NAC amide (750 μM); 4) glutamate only: NGF (100 ng/ml), glutamate (10 mM), no NAC amide; and 5) Glu+NAC amide: NGF (100 ng/ml), glutamate (10 mM), NAC amide (750 μM). […]
Glutamate toxicity was evaluated by 1) morphological assessment of PC12 cells in the presence of glutamate; 2) measuring the amount of LDH released in the media 24 h after glutamate exposure; and 3) measuring cell viability using the MTS assay. […]

The subject of assay [4] is PC12 cells. The assay can be described thus: LDH assay, glutamate cytotoxicity. The format is cell-based. As to conditions: 10 mM glutamate + 750 μM NAC amide, 24 hours; glutamate alone = 100%. As to the method:
LDH assay: For the lactate dehydrogenase (LDH) assay, cells were plated at a density of 2.5×10^5 cells/well in a 24 well collagen-coated culture plate and, after 24 h; the medium was replaced with fresh DMEM medium containing the desired concentration of glutamate and NAC amide. After the desired incubation period, the LDH activity released was determined using the kit as described below. For the MTS assay, cells were plated at a density of 10^5 cells/well in a 24 well collagen-coated plate. At the end of the experiments, cell viability was assayed using the kit as described. The LDH activity assay was performed with the CytoTox96® Non-Radioactive Cytotoxicity Assay kit (Promega, Madison, Wis., USA), which quantitatively measured the activity of LDH, a stable cytosolic enzyme that is released upon cell lysis [Technical Bulletin No. 163, Promega]. […] Absorbance data were collected using a BMG microplate reader (BMG Labtechnologies, Inc., Durham, N.C., USA) at 490 nm. LDH leakage was expressed as the percentage (%) of the maximum LDH release in the cells treated with glutamate alone (100%), according to the formula: […]
To quantify the protection provided by NAC amide, PC12 cells were exposed to 10 mM glutamate in the presence of NAC amide for 24 hours, and then the amount of LDH released was measured using the LDH assay.

Assay [5] relates to PC12 cells. The assay can be described thus: GSH measurement in cells (NPM/HPLC). The format is cell-based. The procedure: Cells were seeded at a density of 80,000 cells/cm^2 on poly-D-lysine coated (0.05 mg/ml) 75 cm^2 flasks (5 ml/flask) for GSH measurement. […] After the incubation period, cells were removed from the cultures and homogenized in serine borate buffer (100 mM Tris-HCl, 10 mM boric acid, 5 mM L-serine, 1 mM DETAPAC, pH 7.4). Twenty (20) μl of the diluted cell homogenate were added to 230 μl of serine borate buffer and 750 μl of NPM (1 mM in acetonitrile). The resulting solutions were incubated at room temperature for 5 min. The reaction was stopped by the addition of 5 μl of 2N HCl. The samples were then filtered through a 0.2 μm Acrodisc filter and injected onto the HPLC system.
[…] Values represent means.+−.SD. Statistically different values of *P<0.05 were determined, compared to control. **P<0.001 compared to glutamate-treated group. ***P<0.05 compared to glutamate-treated group.

The subject of assay [6] is PC12 cells. The assay can be described thus: Cysteine levels in cells. As to conditions: NAC amide 750 μM, glutamate 10 mM, 24 h (FIG. 5). In kind it is cell-based. As to the method: Cells were plated and grown for 24 hours, and then they were exposed to glutamate (10 mM) in the presence or absence of NAC amide (750 μM). Twenty-four hours later, the cells were harvested and cysteine levels were measured. Values represent means±SD. Statistically different values of *P<0.005 and **P<0.05 were determined, compared to control. ***P<0.05 compared to glutamate-treated group.
GSH measurement: Cellular levels of GSH were determined by using the method as described in Winters R. A. et al., Anal Biochem., 227(1):14-21, 1995. Cells were seeded at a density of 80,000 cells/cm^2 on poly-D-lysine coated (0.05 mg/ml) 75 cm^2 flasks (5 ml/flask) for GSH measurement. After 24 hours, the flasks were incubated with fresh medium containing glutamate (10 mM), or BSO (0.2 mM) or Glu+BSO+NAC amide (750 μM) at […] for another 24 h. After the incubation period, cells were removed from the cultures and homogenized in serine borate buffer (100 mM Tris-HCl, 10 mM boric acid, 5 mM L-serine, 1 mM DETAPAC, pH 7.4). Twenty (20) μl of the diluted cell homogenate were added to 230 μl of serine borate buffer and 750 μl of NPM (1 mM in acetonitrile). The resulting solutions were incubated at room temperature for 5 min. The reaction was stopped by the addition of 5 μl of 2N HCl. The samples were then filtered through a 0.2 μm Acrodisc filter and injected onto the HPLC system.

Assay [7] concerns mice. The assay is described as follows: GSH and cysteine levels after administration to mice. The format is in vivo. As to conditions: 30 minutes after administration.

`CC(=O)N[C@@H](CS)C(=O)O` [NAC, N-acetylcysteine]: in assay [1], the “time increased hepatic GSH levels are maintained” value was “at least 6 hours”.
In the case of N-acetylcysteine amide [NAC amide], the “BuOOH-induced intracellular oxidation in red blood cells” value in assay [2] is listed as “inhibit”. Further, the “protection from glutamate toxicity (neurite morphology, light microscopy)” value in assay [3] is “slightly decreasing the bleb formation on neurites”. Besides, the “% LDH released” value in assay [4] is given as 28.9%. For the same compound, in assay [5] (750 μM, 24 hour treatment), the “increase of PC12 cell GSH level compared to the control group” value is on record as “two fold”. Besides, the “GSH Levels” value in assay [5] (GLU (10 mM) + BSO (0.2 mM) + NAC amide (750 μM)) was 30 ± 4.3 nM/mg protein; in assay [5] (GLU (10 mM) + NAC amide (750 μM)), 88 ± 11.0 nM/mg protein; in assay [5] (NAC amide (750 μM) alone), 112 ± 17.8 nM/mg protein. In addition, the “cells' GSH levels maintained in GSH synthesis-arrested cells” value in assay [5] (glutamate + BSO (0.2 mM)) is given as 56%. In assay [6], the “cysteine levels compared to the control group” value is given as “increase”. For the same compound, in assay [7], the “GSH and cysteine levels” value is “Increases”.
